In ChEMBL document CHEMBL1201862, “PubChem BioAssay data set” (2004):
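Growth conditions: 96-well plates. Treatment: test compound, 48 hours, 5 concentrations. Analysis: linear interpolation between bracketing concentrations; unreached endpoints set to highest concentration. GI50: concentration for 50% inhibition of growth.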 Active and inactive are the calls of the source. Cut-off read from the data, not from the text of the source: active = GI50 up to about 1.1 µM and inactive = higher.

Legend:
Assay in all cases: NCI-60 cell line screen, 48 h
SNB-78 = test system: SNB-78
DMS-273 = test system: DMS-273
RXF 631 = test system: RXF 631
LXFL 529 = test system: LXFL 529
DMS-114 = test system: DMS-114
KM-20L2 = test system: KM-20L2
XF498 = test system: XF498
HOP-18 = test system: HOP-18

Measured: GI50

Fc1ccccc1C1SCc2nc3ccccc3n21 (configuration not stated)
inactive: SNB-78 > 100 µM | DMS-273 31.3 µM | RXF 631 31.3 µM | LXFL 529 37.6 µM | DMS-114 24.4 µM

CC1=CC=NN2C(=O)[C@H](C)C2C1 (some centres not stated)
inactive: KM-20L2 > 100 µM | SNB-78 > 100 µM | XF498 > 100 µM | DMS-273 > 100 µM | RXF 631 > 100 µM | LXFL 529 > 100 µM | DMS-114 > 100 µM | HOP-18 > 100 µM

O=c1[nH]c(=O)n(C2CC(O)C(CO)O2)cc1/C=C/Br (configuration not stated)
inactive: KM-20L2 > 100 µM | SNB-78 > 100 µM | XF498 > 100 µM | DMS-273 > 100 µM | RXF 631 > 100 µM | LXFL 529 > 100 µM | DMS-114 > 100 µM

CCN(CC)CCCC(C)Nc1c(Sc2cnc3cc(Cl)ccc3c2NC(C)CCCN(CC)CC)cnc2cc(Cl)ccc12 (configuration not stated)
inactive: KM-20L2 1.66 µM | SNB-78 2.73 µM | DMS-273 1.72 µM | RXF 631 2.08 µM | LXFL 529 1.92 µM | HOP-18 2.17 µM

C/C(=N\NC(N)=S)c1ccc2c(c1)OCO2
inactive: KM-20L2 > 100 µM | SNB-78 > 100 µM | XF498 > 100 µM | RXF 631 > 100 µM | LXFL 529 > 100 µM | DMS-114 94.8 µM | HOP-18 > 100 µM

N#COc1ccc(Oc2ccccc2)cc1
inactive: KM-20L2 > 100 µM | SNB-78 36.8 µM | XF498 97.3 µM | DMS-273 22.5 µM | LXFL 529 > 100 µM | DMS-114 31.1 µM | HOP-18 > 100 µM

CNCCCCN(C)/[N+]([O-])=N\O
inactive: KM-20L2 > 100 µM | SNB-78 > 100 µM | DMS-273 > 100 µM | RXF 631 > 100 µM | LXFL 529 > 100 µM | DMS-114 > 100 µM | HOP-18 > 100 µM

CC1CCC2CC(=O)OC([C@@H]3C(=O)O[C@@H](C4=CCCC4)C4C(C)CCC43)C12 (some centres not stated)
inactive: KM-20L2 92.3 µM | SNB-78 > 100 µM | XF498 > 100 µM | DMS-273 > 100 µM | LXFL 529 47.4 µM | DMS-114 27.7 µM | HOP-18 > 100 µM

O=c1cc2ccccc2nn1Cc1cccc(Cl)c1
inactive: KM-20L2 > 100 µM | SNB-78 > 100 µM | XF498 18.8 µM | DMS-273 85.9 µM | RXF 631 > 100 µM | DMS-114 66.4 µM | HOP-18 > 100 µM

CC(C)(C)OC1=C(OC(C)(C)C)C(O)(c2ccccc2)C1=O (configuration not stated)
inactive: SNB-78 > 100 µM | DMS-273 > 100 µM | RXF 631 > 100 µM | LXFL 529 > 100 µM | DMS-114 > 100 µM | HOP-18 > 100 µM

COc1nc(NC2OC(COC(C)=O)C(OC(C)=O)C(OC(C)=O)C2OC(C)=O)c(/N=C(\C)C(C)=O)c(=O)n1C (configuration not stated)
inactive: KM-20L2 > 100 µM | SNB-78 > 100 µM | XF498 > 100 µM | DMS-273 > 10 µM | LXFL 529 > 100 µM | DMS-114 > 100 µM | HOP-18 > 100 µM

Nc1ncnc2sc(Nc3ccccc3)nc12
inactive: KM-20L2 43.8 µM | SNB-78 > 100 µM | XF498 > 100 µM | DMS-273 > 100 µM | RXF 631 9.86 µM | LXFL 529 > 100 µM

CC(=O)c1c2c(cc3c1CC1(C3)Cc3cc4c(c(C(C)=O)c3C1)CCC4)CCC2
inactive: SNB-78 > 100 µM | XF498 > 100 µM | RXF 631 > 100 µM | LXFL 529 > 100 µM | DMS-114 > 100 µM | HOP-18 > 100 µM

O=C(Nc1c(O)[nH]c(=S)[nH]c1=O)c1ccccn1
inactive: KM-20L2 > 100 µM | SNB-78 > 100 µM | RXF 631 > 100 µM | LXFL 529 > 100 µM | DMS-114 > 100 µM | HOP-18 > 100 µM
